According to patent US20060251597A1, “ANTI-ODOR COMPOSITIONS AND THERAPEUTIC USE” (priority 2005, published 2006):
Where a name gives a salt, the structure may show the parent alone.

test: anti-odor test, three-member panel by sniffing: sulfone or organic amine in composition containing water or alcohol (solution, oil-in-water emulsion); settings: not given
Protocol: (§1) Initially, a malodor compound such as about 5% by weight was prepared in water solution or in oil-in-water emulsion. A sulfone or organic amine of the present embodiments was added at various concentrations for example, ranging from about 2%, 1%, 0.5% and 0.1% to the formulations containing the malodor substance. The composition containing the malodor substance without a sulfone or organic amine was used as the control.
Methenamine (MW 140) 7.0 g was dissolved in water, and the total volume was 100 ml. This solution contained methenamine 0.5M or 70 mg per ml methenamine.
Piperazine (MW 86) 4.3 g was dissolved in water, and the total volume was 100 ml. This solution contained piperazine 0.5M, or 43 mg per ml piperazine.

Molecule	malodor as judged by panel
O=S(=O)(CCO)CCO [2,2-sulfonyldiethanol]	did not have any malodor
O=S(=O)(c1ccc(O)cc1)c1ccc(O)cc1 [4,4′-sulfonyldiphenol]	did not have any malodor

same assay, conditions: 10% N-acetyl-L-cysteine and 5% anti-odor ingredient in water

Molecule	malodor as judged by panel
Cc1cc(S(=O)(=O)c2ccc(O)c(C)c2)ccc1O [4,4′-sulfonyl-bis(2-methylphenol)]	did not have any malodor
COC(=O)c1ccc(S(=O)(=O)c2ccc(C(=O)OC)cc2)cc1 [4,4′-sulfonyl-bis(methylbenzoate)]	did not have any malodor
CS(C)(=O)=O [dimethyl sulfone]	did not have any malodor
O=S(=O)(c1ccccc1)c1ccccc1 [diphenylsulfone]	did not have any malodor
CCOC(=O)CC(C)=O [ethyl acetoacetate]	did not have any malodor

same assay, conditions: 10% N-acetyl-L-cysteine and 10% dimethyl sulfone in ethanol

Molecule	malodor as judged by panel
CS(C)(=O)=O [dimethyl sulfone]	very strong malodor

same assay, conditions: 10% N-acetyl-L-cysteine and 10% sulfone in water

Molecule	malodor as judged by panel
CS(C)(=O)=O [dimethyl sulfone]	did not have any malodor

same assay, conditions: N-acetyl-L-cysteine 2% in oil-in-water emulsion

Molecule	concentration that can completely eliminate the malodor [%]
C1N2CN3CN1CN(C2)C3 [methenamine, reference compound]	≥ 0.1

same assay, conditions: cream (oil-in-water emulsion), 10% N-acetyl-L-cysteine and 3% methenamine

Molecule	malodor as judged by panel
C1N2CN3CN1CN(C2)C3 [methenamine, reference compound]	did not have any malodor

same assay, conditions: cream (oil-in-water emulsion), 10% N-acetyl-L-cysteine, no anti-odor ingredient (control)

Molecule	malodor as judged by panel
CC(=O)N[C@@H](CS)C(=O)O [N-Acetyl-L-cysteine, reference compound]	very unpleasant malodor

same assay, conditions: water, 4% N-acetyl-L-cysteine and 1% organic amine (cytidine solution pH 4.3)

Molecule	effective in preventing malodor [%]	malodor as judged by panel
Nc1ncnc2nc[nH]c12 [adenine]	50	slight malodor ((b) slight malodor (50% effective))
Nc1cc[nH]c(=O)n1 [cytosine]	50	slight malodor ((b) slight malodor (50% effective))
Nc1nc2nc[nH]c2c(=O)[nH]1 [guanine]	50	slight malodor ((b) slight malodor (50% effective))
Nc1nc2c(ncn2[C@@H]2O[C@H](CO)[C@@H](O)[C@H]2O)c(=O)[nH]1 [guanosine]	50	slight malodor ((b) slight malodor (50% effective))

same assay, conditions: water, N-acetyl-L-cysteine 0.25 M and chlorhexidine 0.1 M

Molecule	effective in preventing odor [%]	malodor as judged by panel
[H]/N=C(\N/C(=N/[H])NCCCCCCNC(=N)NC(=N)Nc1ccc(Cl)cc1)Nc1ccc(Cl)cc1 [chlorhexidine base, chlorhexidine, reference compound]	50	slight malodor ((b) slight malodor (50% effective))

same assay, conditions: water, N-acetyl-L-cysteine 4% and methenamine 0.7%, pH 3.9

Molecule	malodor as judged by panel
C1N2CN3CN1CN(C2)C3 [methenamine, reference compound]	did not have any malodor

same assay, conditions: water, N-acetyl-L-cysteine 4% and methenamine 1.8%, pH 5.2

Molecule	malodor as judged by panel
C1N2CN3CN1CN(C2)C3 [methenamine, reference compound]	did not have any malodor

same assay, conditions: water, N-acetyl-L-cysteine 4% and piperazine 0.43%, pH 3.4

Molecule	effective in preventing odor [%]	malodor as judged by panel
C1CNCCN1 [piperazine, reference compound]	50	slight malodor ((b) slight malodor (50% effective))

same assay, conditions: water, N-acetyl-L-cysteine 4% and piperazine 1.1%, pH 5.6

Molecule	effective in preventing odor [%]	malodor as judged by panel
C1CNCCN1 [piperazine, reference compound]	50	slight malodor ((b) slight malodor (50% effective))

same assay, conditions: water, N-acetyl-L-cysteine 4% and trizma base 0.61%, pH 3.0

Molecule	effective in preventing odor [%]	malodor as judged by panel
tris(hydroxymethyl)aminomethane [trizma base]	50	slight malodor ((b) slight malodor (50% effective))

same assay, conditions: water, N-acetyl-L-cysteine 4% and trizma base 1.5%, pH 3.5

Molecule	effective in preventing odor [%]	malodor as judged by panel
tris(hydroxymethyl)aminomethane [trizma base]	50	slight malodor ((b) slight malodor (50% effective))

test: anti-odor test, panel by sniffing: N-acetyl-L-cysteine dissolved in a single solvent or liquid ingredient (anhydrous composition); settings: 10% N-acetyl-L-cysteine and 90% solvent
Protocol: An anti-odor test was carried out in an anhydrous solvent according to the following example. In a series of test tubes, 4.5 ml of a solvent was added to a test tube such that each test tube comprised a single solvent. The solvents added to the test tubes included water, ethanol, acetone, n-propanol, isopropyl alcohol, propylene glycol, butylenes glycol, benzyl alcohol, ethoxydiglycol, 2-ethyl-1,3-hexanediol. N-Acetyl-L-cysteine (MW 163) 0.5 g was then added and dissolved in each solvent. The test tubes were warmed slightly to enhance dissolution of N-acetyl-L-cysteine crystals. Each test tube contained 10% N-acetyl-L-cysteine and 90% solvent.
An anti-odor test was carried out in an anhydrous composition according to the following example. In a series of test tubes, 4.5 ml of a liquid ingredient was added to a test tube such that each test tube comprised a single liquid ingredient. The liquid ingredients added to a test tube included ethyl glycolate, ethyl-L-lactate, diethyl tartrate, triethyl citrate, tripropyl citrate, ethyl-DL-mandelate, benzyl N-acetyl-prolinate, ethyl N-acetyl-prolinate, propyl N-acetyl-prolinate. N-Acetyl-L-cysteine (MW 163) 0.5 g was then added and dissolved in each liquid ingredient. The test tubes were warmed slightly to enhance dissolution of N-acetyl-L-cysteine crystals. Each test tube contained 10% N-acetyl-L-cysteine and 90% liquid ingredient. The panel judged the anti-odor effect in each test tube.

Molecule	suppression of the malodor, judged by panel
CCO [ethanol]	did not suppress the malodor
CC(O)CO (stereo not shown) [propylene glycol]	did not suppress the malodor
O [water]	did not suppress the malodor

same assay, conditions: 10% N-acetyl-L-cysteine and 90% solvent or liquid ingredient

Molecule	anti-odor effect [%]
CCOC(=O)C(O)c1ccccc1 (racemic) [ethyl-DL-mandelate]	100
CCCC(O)C(CC)CO (stereo not shown) [2-ethyl-1,3-hexanediol]	100
CC(C)=O [acetone]	100
CC(=O)N1CCC[C@H]1C(=O)OCc1ccccc1 [benzyl N-acetyl-prolinate]	100
OCc1ccccc1 [benzyl alcohol]	100
CCOC(=O)[C@H](C)O [ethyl-L-lactate]	100

test: panel sniff tests of solvents, ingredients and amines against thiol malodor (general statements); settings: solvent or ingredient, based on the panel tests
Protocol: as §1

Molecule	prevention of malodor produced by a thiol or similar malodor compounds
CCCC(O)C(CC)CO (stereo not shown) [2-ethyl-1,3-hexanediol]	effectively prevent malodor
CCCCO [N-butyl alcohol]	effectively prevent malodor
CC(=O)N1CCC[C@H]1C(=O)OCc1ccccc1 [benzyl N-acetyl-prolinate]	effectively prevent malodor
CCCCOCCOCCO [butoxydiglycol]	effectively prevent malodor
CCCCOCC(C)O (stereo not shown) [butoxypropanol]	effectively prevent malodor
CCCCOC(C)=O [butyl acetate]	effectively prevent malodor
CCCCOC(=O)C(C)O (stereo not shown) [butyl lactate]	effectively prevent malodor
CCCCCCC(CO)CCCC (stereo not shown) [butyloctanol]	effectively prevent malodor
C1CCCCC1 [cyclohexane]	effectively prevent malodor
CCCCOC(=O)CCCCC(=O)OCCCC [dibutyl adipate]	effectively prevent malodor
CC(C)COC(=O)CCCCC(=O)OCC(C)C [diisobutyl adipate]	effectively prevent malodor
CC(C)OC(=O)CCCCC(=O)OC(C)C [diisopropyl adipate]	effectively prevent malodor
CC(C)OC(=O)C(=O)OC(C)C [diisopropyl oxalate]	effectively prevent malodor
CC(C)OC(=O)CCCCCCCCC(=O)OC(C)C [diisopropyl sebacate]	effectively prevent malodor
COCCOCCOC [dimethoxydiglycol]	effectively prevent malodor
COC(=O)CCCCC(=O)OC [dimethyl adipate]	effectively prevent malodor
CS(C)(=O)=O [dimethyl sulfone]	effectively prevent malodor
CCCCCCCCOC(=O)CCCCC(=O)OCCCCCCCC [dioctyl adipate]	effectively prevent malodor

Molecule	prevention of malodor produced by a thiol or similar malodor compounds
CCCCCCCCOC(=O)CCCCCCCCC(=O)OCCCCCCCC [dioctyl sebacate]	effectively prevent malodor
CCCOC(=O)CCCCC(=O)OCCC [dipropyl adipate]	effectively prevent malodor
CCOCCO [ethoxyethanol]	effectively prevent malodor
CCOC(=O)CC(C)=O [ethyl acetoacetate]	effectively prevent malodor
CCOC(=O)C(C)O (stereo not shown) [ethyl lactate]	effectively prevent malodor
CC(C)CC(C)(C)C [isooctane]	effectively prevent malodor
CC(=O)N1CCC[C@H]1C(=O)OC(C)C [isopropyl N-acetyl-prolinate]	effectively prevent malodor
CC(=O)OC(C)C [isopropyl acetate]	effectively prevent malodor
CCCCCCCCCCCCCC(=O)OC(C)C [isopropyl myristate]	effectively prevent malodor
CCCCCCCCCCCCCCCCCC [octadecane]	effectively prevent malodor
CCCCCCCCO [octanol]	effectively prevent malodor
CCCCCCCCOC(=O)c1ccccc1 [octyl benzoate]	effectively prevent malodor
CCCCCCCC/C=C\CCCCCCCCO [oleyl alcohol]	effectively prevent malodor
CCCCCCCC/C=C\CCCCCCCCOC(=O)C(C)O (stereo not shown) [oleyl lactate]	effectively prevent malodor
CC(C)OC(=O)CC(O)(CC(=O)OC(C)C)C(=O)OC(C)C [triisopropyl citrate]	effectively prevent malodor
cycloethoxymethicone	effectively prevent malodor
cyclomethicone	effectively prevent malodor
